Source: US20190030046A1, “USE OF PURE COMPOUNDS EXTRACTED FROM ANTRODIA CAMPHORATA” (priority 2016, published 2019)

Assays:
[1] = tested on: membrane GLUT4; assay: Membrane GLUT4 protein expression in C2C12 myotube cells (Western blot); assay type: cell-based; conditions: 1, 5, 10, and 25 μg/mL, 25 min
Experimental: In the present invention, C2C12 skeletal myoblasts (ATCC, CRL-1772) were maintained in growth media consisting of Dulbecco's modified Eagle's medium (DMEM) (Gibco BRL) and supplemented with 10% Fetal Bovine Serum (FBS) (Hyclone) and 100 U/mL penicillin/100 μg/mL streptomycin (Gibco BRL), and split 1:4 using 0.05% trypsin when 80% confluent. Myoblasts were diluted and placed in a 9 cm-diameter dish. Cells were cultured to achieve 80%-90% confluency and then the growth media was changed as 2% FBS/DMEM every 24 h for 5-7 days.
In experiments for determining GLUT4 and p-Akt(Ser473)/t-Akt proteins in tubes, differentiated C2C12 cells were serum-starved in DMEM/BSA for 2 h at 37° C. prior to incubation with MeOH crude extract (at 20, 100, 200, and 500 μg/mL), test compounds (at 1, 5, 10, and 25 μg/mL), or vehicle for 25 min, or 100 nM insulin for 25 min.
The cultures obtained by cell culture above were centrifuged, and the resulting pellet was resuspended in a homogenization buffer. The forgoing steps were performed with a filtration membrane. Protein concentrations were measured using a BCA assay (Pierce). Equal amounts of protein were diluted four times in SDS sample buffer, and subjected to SDS PAGE and Western blotting with antibodies specific for Akt, p-Akt Ser^473, and GLUT4. Density blotting analysis was performed using Alpha Easy FC software.

[2] = HFD-induced diabetic mice: histopathology (H-E) of epididymal white adipose and liver tissue; assay type: in vivo, C57BL/6J mice; conditions: for Adipocyte area: epididymal white adipose, 4 weeks
Experimental: (§1) The difference indicates the daily food intake.
Examination was performed for parts of EWAT (epididymal white adipose) and liver tissue specimens collected. The specimens above were soaked in formalin and neutral buffered solution and embedded in paraffin. Parts therein (8 μm) were cut and stained with hematoxylin and eosin. Images were photographed by a microscope (Olympus BX51, Olympus, Tokyo, Japan). Please refer to FIGS. 3(A) and 3(B).

[3] = tested on: SREBP-1c; assay: Semiquantitative RT-PCR in liver tissue: SREBP-1c; assay type: in vivo, C57BL/6J mice; conditions: vs HF, 4 weeks
Experimental: as §1
(§2) Total RNA from liver tissue was isolated with a Trizol Reagent (Molecular Research Center, Inc., Cincinnati, Ohio, USA) according to the manufacturer's instructions. The integrity of the extracted total RNA was examined by 2% agarose gel electrophoresis, and the RNA concentration was determined by […] ultraviolet (UV) light absorbency at 260 nm and 280 nm (Spectrophotometer U-2800A, Hitachi). The total RNA (1 μg) was reverse transcribed to cDNA, and 5 μL Moloney murine leukemia virus reverse transcriptase (TEpicentre, Madison, Wis., USA). The PCR was performed in a final 25 μL containing 1 U Blend Taq-Plus (TOYOBO, Japan), 10 μL of the RT cDNA product, 10 μM of each forward (F) and reverse (R) primer, 75 mM Tris-HCL (pH 8.3) containing 1 mg/L Tween 20 (pH 8.3, also known as polyoxyethylene sorbitan monolaurate), 2.5 mM dNTP (deoxy-ribonucleoside triphosphate), and 2 mM MgCl2 (magnesium chloride). The PCR products were analyzed by 2% agarose gel and stained with ethidium bromide.

[4] = tested on: PPARγ; assay: Western blot of PPARγ protein in liver and adipose tissue of HFD mice; conditions: compared to HF, 4 weeks
[5] = tested on: SREBP-2; assay: Semiquantitative RT-PCR in liver tissue: SREBP-2; assay type: in vivo, C57BL/6J mice; conditions: vs HF, 4 weeks
Experimental: as §1, §2

[6] = HFD-induced diabetic mice: absolute tissue weight, body weight, food intake; assay type: in vivo, C57BL/6J mice; conditions: 4 weeks; for Absolute tissue weight: Visceral fat: EWAT plus RWAT
Excerpt: as §1

[7] = tested on: aP2; assay: Semiquantitative RT-PCR in liver tissue: aP2; assay type: in vivo, C57BL/6J mice; conditions: vs HF, 4 weeks
Experimental: as §1, §2

[8] = tested on: PPARα; assay: Western blot of PPARα protein in liver of HFD mice; conditions: compared to HF, 4 weeks
[9] = tested on: phospho-AMPK(Thr172); assay: Western blot of phospho-AMPK(Thr172)/total-AMPK in skeletal muscle and liver of HFD mice; conditions: compared to HF, 4 weeks
Experimental: (§3) The HFD mice were subdivided into 6 groups (9 per group) followed by 8-week induction. […] Following four-week treatment and feeding, the food was removed, and the mice were fasted for 12 h and then sacrificed. Tissue samples required were collected from the mice and weighted. Some of the tissue samples were immediately stored at −80° C. and frozen for subsequent target gene analysis. Plasma samples were collected via centrifugation of whole blood at 1600×g for 15 min at 4° C., followed by plasma separation within 30 min.
(§4) We determined PPARα and FAS protein expression levels in liver tissue, PPARγ and FAS protein expression levels in adipose tissue, and membrane GLUT4 expression in skeletal muscle adipose. The total membrane fraction was collected with the buffer and determined as previously described. The membrane GLUT4, p-AMPK, and total AMPK protein content were determined by Western Blotting as previously described.

[10] = tested on: FAS; assay: Western blot of FAS protein in liver and adipose tissue of HFD mice; conditions: compared to HF, 4 weeks
Experimental: as §3, §4

[11] = tested on: CPT-1a; assay: Semiquantitative RT-PCR in liver tissue: CPT-1a; assay type: in vivo, C57BL/6J mice; conditions: vs HF, 4 weeks
Experimental: as §1, §2

C=C(CC[C@@H](C(=O)O)[C@H]1CC[C@@]2(C)C3=CC[C@H]4C(C)(C)[C@@H](O)CC[C@]4(C)C3=CC[C@]12C)C(C)C [TT, dehydroeburicoic acid]
protein expression level of membrane GLUT4 [1]: increase | Adipocyte area ([2]; HF+TT1, 10 mg/kg/day oral): 6872.5 ± 160.8 μm^2 | Adipocyte area ([2]; HF+TT2, 20 mg/kg/day oral): 6530.2 ± 148.2 μm^2 | Adipocyte area ([2]; HF+TT3, 40 mg/kg/day oral): 5972.4 ± 279.5 μm^2 | liver ballooning degeneration ([2]; pathohistological staining): reduce | SREBP-1c mRNA expression level in liver ([3]; HF+TT1, 10 mg/kg/day oral): decreased | SREBP-1c mRNA expression level in liver ([3]; HF+TT2, 20 mg/kg/day oral): decreased | SREBP-1c mRNA expression level in liver ([3]; HF+TT3, 40 mg/kg/day oral): decreased | PPARγ protein expression level in adipose tissue ([4]; HF+TT1, 10 mg/kg/day oral): significantly decreased | PPARγ protein expression level in liver ([4]; HF+TT1, 10 mg/kg/day oral): significantly decreased | PPARγ protein expression level in adipose tissue ([4]; HF+TT2, 20 mg/kg/day oral): significantly decreased | PPARγ protein expression level in liver ([4]; HF+TT2, 20 mg/kg/day oral): significantly decreased | PPARγ protein expression level in adipose tissue ([4]; HF+TT3, 40 mg/kg/day oral): significantly decreased | PPARγ protein expression level in liver ([4]; HF+TT3, 40 mg/kg/day oral): significantly decreased | SREBP-2 mRNA expression level in liver ([5]; HF+TT1, 10 mg/kg/day oral): decreased | SREBP-2 mRNA expression level in liver ([5]; HF+TT2, 20 mg/kg/day oral): decreased | SREBP-2 mRNA expression level in liver ([5]; HF+TT3, 40 mg/kg/day oral): decreased | Absolute tissue weight: Visceral fat ([6]; HF+TT1, 10 mg/kg/day oral): 1142.9 mg | Absolute tissue weight: Visceral fat ([6]; HF+TT2, 20 mg/kg/day oral): 1116.2 mg | Absolute tissue weight: Visceral fat ([6]; HF+TT3, 40 mg/kg/day oral): 979.3 mg | Absolute tissue weight: Brown adipose tissue (BAT) ([6]; HF+TT1, 10 mg/kg/day oral): 228.6 mg | Absolute tissue weight: Epididymal white adipose tissue (EWAT) ([6]; HF+TT1, 10 mg/kg/day oral): 798.9 mg | Absolute tissue weight: Liver ([6]; HF+TT1, 10 mg/kg/day oral): 848.3 mg | Absolute tissue weight: Mesenteric white adipose tissue (MWAT) ([6]; HF+TT1, 10 mg/kg/day oral): 361.3 mg | Absolute tissue weight: Retroperitoneal white adipose tissue (RWAT) ([6]; HF+TT1, 10 mg/kg/day oral): 343.9 mg | Absolute tissue weight: Spleen ([6]; HF+TT1, 10 mg/kg/day oral): 77.7 mg | Final body weight ([6]; HF+TT1, 10 mg/kg/day oral): 27.52 g | Food intake ([6]; HF+TT1, 10 mg/kg/day oral): 2.21 g/day/mouse | Weight gain ([6]; HF+TT1, 10 mg/kg/day oral): 2.24 g | Absolute tissue weight: Brown adipose tissue (BAT) ([6]; HF+TT2, 20 mg/kg/day oral): 197.3 mg | Absolute tissue weight: Epididymal white adipose tissue (EWAT) ([6]; HF+TT2, 20 mg/kg/day oral): 784.3 mg | Absolute tissue weight: Liver ([6]; HF+TT2, 20 mg/kg/day oral): 841.8 mg | Absolute tissue weight: Mesenteric white adipose tissue (MWAT) ([6]; HF+TT2, 20 mg/kg/day oral): 340.9 mg | Absolute tissue weight: Retroperitoneal white adipose tissue (RWAT) ([6]; HF+TT2, 20 mg/kg/day oral): 331.9 mg | Absolute tissue weight: Spleen ([6]; HF+TT2, 20 mg/kg/day oral): 81.5 mg | Final body weight ([6]; HF+TT2, 20 mg/kg/day oral): 26.47 g | Food intake ([6]; HF+TT2, 20 mg/kg/day oral): 2.16 g/day/mouse | Weight gain ([6]; HF+TT2, 20 mg/kg/day oral): 0.89 g | Absolute tissue weight: Brown adipose tissue (BAT) ([6]; HF+TT3, 40 mg/kg/day oral): 198.1 mg | Absolute tissue weight: Epididymal white adipose tissue (EWAT) ([6]; HF+TT3, 40 mg/kg/day oral): 667.8 mg | Absolute tissue weight: Liver ([6]; HF+TT3, 40 mg/kg/day oral): 802.8 mg | Absolute tissue weight: Mesenteric white adipose tissue (MWAT) ([6]; HF+TT3, 40 mg/kg/day oral): 304.6 mg | Absolute tissue weight: Retroperitoneal white adipose tissue (RWAT) ([6]; HF+TT3, 40 mg/kg/day oral): 311.4 mg | Absolute tissue weight: Spleen ([6]; HF+TT3, 40 mg/kg/day oral): 82.3 mg | Final body weight ([6]; HF+TT3, 40 mg/kg/day oral): 26.53 g | Food intake ([6]; HF+TT3, 40 mg/kg/day oral): 2.07 g/day/mouse | Weight gain ([6]; HF+TT3, 40 mg/kg/day oral): 0.83 g | aP2 mRNA expression level in liver ([7]; HF+TT1, 10 mg/kg/day oral): decreased | aP2 mRNA expression level in liver ([7]; HF+TT2, 20 mg/kg/day oral): decreased | aP2 mRNA expression level in liver ([7]; HF+TT3, 40 mg/kg/day oral): decreased | PPAR protein expression level in liver ([8]; HF+TT1, 10 mg/kg/day oral): significantly increased | PPAR protein expression level in liver ([8]; HF+TT2, 20 mg/kg/day oral): significantly increased | PPAR protein expression level in liver ([8]; HF+TT3, 40 mg/kg/day oral): significantly increased | expression level of p-AMPK/t-AMPK proteins in liver ([9]; HF+TT1, 10 mg/kg/day oral): significantly increased | expression level of phospho-AMPK/total-AMPK in skeletal muscle ([9]; HF+TT1, 10 mg/kg/day oral): significantly increased | expression level of p-AMPK/t-AMPK proteins in liver ([9]; HF+TT2, 20 mg/kg/day oral): significantly increased | expression level of phospho-AMPK/total-AMPK in skeletal muscle ([9]; HF+TT2, 20 mg/kg/day oral): significantly increased | expression level of p-AMPK/t-AMPK proteins in liver ([9]; HF+TT3, 40 mg/kg/day oral): significantly increased | expression level of phospho-AMPK/total-AMPK in skeletal muscle ([9]; HF+TT3, 40 mg/kg/day oral): significantly increased | FAS protein expression level in adipose tissue ([10]; HF+TT1, 10 mg/kg/day oral): significantly decreased | FAS protein expression level in liver ([10]; HF+TT1, 10 mg/kg/day oral): significantly decreased | FAS protein expression level in adipose tissue ([10]; HF+TT2, 20 mg/kg/day oral): significantly decreased | FAS protein expression level in liver ([10]; HF+TT2, 20 mg/kg/day oral): significantly decreased | FAS protein expression level in adipose tissue ([10]; HF+TT3, 40 mg/kg/day oral): significantly decreased | FAS protein expression level in liver ([10]; HF+TT3, 40 mg/kg/day oral): significantly decreased | CPT-1a mRNA expression level in liver ([11]; HF+TT1, 10 mg/kg/day oral): increased | CPT-1a mRNA expression level in liver ([11]; HF+TT2, 20 mg/kg/day oral): increased | CPT-1a mRNA expression level in liver ([11]; HF+TT3, 40 mg/kg/day oral): increased
